Test system: 941728-121-R-J1-PDC complex spheroid viability
Test: Anticancer human tumor 941728-121-R-J1-PDC patient-derived lung adenocarcinoma cell line growth inhibition [RAS]
Details: for IC50: curve of first compound; for viability, T/C: stronger effect = lower value
How it was run: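 Tumour cells grown as complex spheroids with HUVEC endothelial cells and mesenchymal stem cells, treated with RAS pathway inhibitor combinations. Each agent spans half-log steps from near clinical Cmax, or 10 microM where Cmax is unknown.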

[1] = second compound 0.0316 µM, first compound 0.0316 µM
[2] = second compound 0.0316 µM, first compound 0.1 µM
[3] = second compound 0.0316 µM, first compound 0.316 µM
[4] = second compound 0.0316 µM, first compound 1 µM
[5] = second compound 0.0316 µM, first compound 3.16 µM
[6] = second compound 0.0316 µM, first compound 10 µM
[7] = second compound 0.1 µM, first compound 0.0316 µM
[8] = second compound 0.1 µM, first compound 0.1 µM
[9] = second compound 0.1 µM, first compound 0.316 µM
[10] = second compound 0.1 µM, first compound 1 µM
[11] = second compound 0.1 µM, first compound 3.16 µM
[12] = second compound 0.1 µM, first compound 10 µM
[13] = second compound 0.316 µM, first compound 0.0316 µM
[14] = second compound 0.316 µM, first compound 0.1 µM
[15] = second compound 0.316 µM, first compound 0.316 µM
[16] = second compound 0.316 µM, first compound 1 µM
[17] = second compound 0.316 µM, first compound 3.16 µM
[18] = second compound 0.316 µM, first compound 10 µM
[19] = second compound 1 µM, first compound 0.0316 µM
[20] = second compound 1 µM, first compound 0.1 µM
[21] = second compound 1 µM, first compound 0.316 µM
[22] = second compound 1 µM, first compound 1 µM
[23] = second compound 1 µM, first compound 3.16 µM
[24] = second compound 1 µM, first compound 10 µM
[25] = second compound 3.16 µM, first compound 0.0316 µM
[26] = second compound 3.16 µM, first compound 0.1 µM
[27] = second compound 3.16 µM, first compound 0.316 µM
[28] = second compound 3.16 µM, first compound 1 µM
[29] = second compound 3.16 µM, first compound 3.16 µM
[30] = second compound 3.16 µM, first compound 10 µM
[31] = second compound 10 µM, first compound 0.0316 µM
[32] = second compound 10 µM, first compound 0.1 µM
[33] = second compound 10 µM, first compound 0.316 µM
[34] = second compound 10 µM, first compound 1 µM
[35] = second compound 10 µM, first compound 3.16 µM
[36] = second compound 10 µM, first compound 10 µM
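Note: spheroids exposed to compounds for 7 days before readout.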
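Throughout, for viability, T/C: 100% = DMSO vehicle control viability.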

CC1(O)CCCC1n1c(=O)c(C(F)F)cc2cnc(NC3CCN(S(C)(=O)=O)CC3)nc21 (stereo not drawn) + C#Cc1c(F)ccc2cc(O)cc(-c3ncc4c(N5CC6CCC(C5)N6)nc(OCC56CCCN5CC(F)C6)nc4c3F)c12
IC50 (second compound 0.0316 µM): 6750 nM | IC50 (second compound 0.1 µM): 6760 nM | IC50 (second compound 0.316 µM): > 10000 nM | IC50 (second compound 1 µM): < 31.6 nM | IC50 (second compound 3.16 µM): < 31.6 nM | IC50 (second compound 10 µM): < 31.6 nM | viability, T/C [1]: 69.8% | viability, T/C [2]: 75% | viability, T/C [3]: 71.9% | viability, T/C [4]: 80.1% | viability, T/C [5]: 81.7% | viability, T/C [6]: 36.7% | viability, T/C [7]: 69.4% | viability, T/C [8]: 72% | viability, T/C [9]: 62.6% | viability, T/C [10]: 68.7% | viability, T/C [11]: 75.7% | viability, T/C [12]: 40% | viability, T/C [13]: 56.2% | viability, T/C [14]: 51.5% | viability, T/C [15]: 51.2% | viability, T/C [16]: 65.6% | viability, T/C [17]: 65% | viability, T/C [18]: 39.9% | viability, T/C [19]: 44.2% | viability, T/C [20]: 38.9% | viability, T/C [21]: 46.9% | viability, T/C [22]: 50.3% | viability, T/C [23]: 55.3% | viability, T/C [24]: 36% | viability, T/C [25]: 30.1% | viability, T/C [26]: 33% | viability, T/C [27]: 36.5% | viability, T/C [28]: 36.9% | viability, T/C [29]: 38.5% | viability, T/C [30]: 28.6% | viability, T/C [31]: 25.6% | viability, T/C [32]: 26.6% | viability, T/C [33]: 28% | viability, T/C [34]: 28.1% | viability, T/C [35]: 28% | viability, T/C [36]: 24%

CCC(CC)c1cc(NC2CCC(N)C2)n2nccc2n1 (stereo not drawn) + C#Cc1c(F)ccc2cc(O)cc(-c3ncc4c(N5CC6CCC(C5)N6)nc(OCC56CCCN5CC(F)C6)nc4c3F)c12
IC50 (second compound 0.0316 µM): 2100 nM | IC50 (second compound 0.1 µM): 1970 nM | IC50 (second compound 0.316 µM): 1470 nM | IC50 (second compound 1 µM): < 31.6 nM | IC50 (second compound 3.16 µM): < 31.6 nM | IC50 (second compound 10 µM): < 31.6 nM | viability, T/C [1]: 96.6% | viability, T/C [2]: 82.6% | viability, T/C [3]: 91.4% | viability, T/C [4]: 90.5% | viability, T/C [5]: 19.2% | viability, T/C [6]: 36.7% | viability, T/C [7]: 96.1% | viability, T/C [8]: 79% | viability, T/C [9]: 78.5% | viability, T/C [10]: 84.1% | viability, T/C [11]: 20.8% | viability, T/C [12]: 31.4% | viability, T/C [13]: 60.9% | viability, T/C [14]: 83.7% | viability, T/C [15]: 59.5% | viability, T/C [16]: 63.1% | viability, T/C [17]: 18.4% | viability, T/C [18]: 29.7% | viability, T/C [19]: 40.1% | viability, T/C [20]: 40.1% | viability, T/C [21]: 41.4% | viability, T/C [22]: 46.2% | viability, T/C [23]: 18.7% | viability, T/C [24]: 32.7% | viability, T/C [25]: 31.5% | viability, T/C [26]: 33.1% | viability, T/C [27]: 37.6% | viability, T/C [28]: 35.8% | viability, T/C [29]: 15.3% | viability, T/C [30]: 34.3% | viability, T/C [31]: 23.2% | viability, T/C [32]: 25.9% | viability, T/C [33]: 27.2% | viability, T/C [34]: 25.6% | viability, T/C [35]: 11.4% | viability, T/C [36]: 25.6%

Cc1nc(N2CCC3(CC2)COC(C)C3N)c(CO)nc1Sc1ccnc(N)c1Cl (stereo not drawn) + C#Cc1c(F)ccc2cc(O)cc(-c3ncc4c(N5CC6CCC(C5)N6)nc(OCC56CCCN5CC(F)C6)nc4c3F)c12
IC50 (second compound 0.0316 µM): < 31.6 nM | IC50 (second compound 0.1 µM): < 31.6 nM | IC50 (second compound 0.316 µM): < 31.6 nM | IC50 (second compound 1 µM): < 31.6 nM | IC50 (second compound 3.16 µM): < 31.6 nM | IC50 (second compound 10 µM): < 31.6 nM | viability, T/C [1]: 50.4% | viability, T/C [2]: 42.5% | viability, T/C [3]: 37.8% | viability, T/C [4]: 33.5% | viability, T/C [5]: 34% | viability, T/C [6]: 36.8% | viability, T/C [7]: 42.8% | viability, T/C [8]: 37.8% | viability, T/C [9]: 33.1% | viability, T/C [10]: 31.7% | viability, T/C [11]: 33% | viability, T/C [12]: 35.4% | viability, T/C [13]: 37.8% | viability, T/C [14]: 34.2% | viability, T/C [15]: 35.7% | viability, T/C [16]: 29.1% | viability, T/C [17]: 32% | viability, T/C [18]: 31% | viability, T/C [19]: 30.2% | viability, T/C [20]: 32.4% | viability, T/C [21]: 29.9% | viability, T/C [22]: 27.9% | viability, T/C [23]: 30.5% | viability, T/C [24]: 32.3% | viability, T/C [25]: 28.8% | viability, T/C [26]: 29.1% | viability, T/C [27]: 25.7% | viability, T/C [28]: 23.1% | viability, T/C [29]: 25.1% | viability, T/C [30]: 26.2% | viability, T/C [31]: 20.1% | viability, T/C [32]: 21.4% | viability, T/C [33]: 19.9% | viability, T/C [34]: 19.6% | viability, T/C [35]: 21.3% | viability, T/C [36]: 20.8%

NC1c2ccccc2OC12CCN(c1cnc3c(N4CCCc5ncccc54)n[nH]c3n1)CC2 (stereo not drawn) + C#Cc1c(F)ccc2cc(O)cc(-c3ncc4c(N5CC6CCC(C5)N6)nc(OCC56CCCN5CC(F)C6)nc4c3F)c12
IC50 (second compound 0.0316 µM): < 31.6 nM | IC50 (second compound 0.1 µM): < 31.6 nM | IC50 (second compound 0.316 µM): < 31.6 nM | IC50 (second compound 1 µM): < 31.6 nM | IC50 (second compound 3.16 µM): < 31.6 nM | IC50 (second compound 10 µM): < 31.6 nM | viability, T/C [1]: 37.8% | viability, T/C [2]: 34.7% | viability, T/C [3]: 30.6% | viability, T/C [4]: 35.9% | viability, T/C [5]: 35.5% | viability, T/C [6]: 43% | viability, T/C [7]: 34.8% | viability, T/C [8]: 33% | viability, T/C [9]: 31.6% | viability, T/C [10]: 35.6% | viability, T/C [11]: 34.2% | viability, T/C [12]: 36.5% | viability, T/C [13]: 30.3% | viability, T/C [14]: 30.8% | viability, T/C [15]: 32.8% | viability, T/C [16]: 29.8% | viability, T/C [17]: 32% | viability, T/C [18]: 37% | viability, T/C [19]: 28.5% | viability, T/C [20]: 27.6% | viability, T/C [21]: 31.4% | viability, T/C [22]: 29.4% | viability, T/C [23]: 28.8% | viability, T/C [24]: 29.7% | viability, T/C [25]: 24.1% | viability, T/C [26]: 24% | viability, T/C [27]: 24.4% | viability, T/C [28]: 24.6% | viability, T/C [29]: 23.4% | viability, T/C [30]: 24.6% | viability, T/C [31]: 20.9% | viability, T/C [32]: 18.3% | viability, T/C [33]: 19.3% | viability, T/C [34]: 18.8% | viability, T/C [35]: 17.8% | viability, T/C [36]: 18.4%
